Experimental data taken from EPA's ToxRefDB 2.

Tests used:
rat [1] = details: Sub-acute repeat dose toxicity; sprague dawley; Injection; Intravenous; dose end: 5 day; group: systemic; systemic / in life observation / clinical signs / drooping eyelids (ptosis) + systemic / in life observation / clinical signs / reduced …
dog = details: Sub-acute repeat dose toxicity, beagle, Injection, Intravenous, dose end: 5 day, group: systemic
primate = details: Sub-acute repeat dose toxicity; Injection; Intravenous; dose end: 5 day; group: systemic; systemic / in life observation / clinical signs / [other] + systemic / in life observation / clinical signs / compulsive biting or licking…
rat [2] = details: Sub-acute repeat dose toxicity; sprague dawley; Injection; Intravenous; dose end: 4 day; group: systemic; systemic / in life observation / clinical signs / drooping eyelids (ptosis) + systemic / in life observation / clinical signs / external …
[3] = systemic / clinical chemistry / bile acids / bile acids
[4] = systemic / clinical chemistry / bile acids / bile acids + systemic / pathology microscopic / gallbladder / hyperplasia + systemic / …

In the case of CNC(=O)[C@H]1O[C@@H](n2cnc3c(NCc4cc(Cl)ccc4OCc4cc(C)no4)ncnc32)[C@H](O)[C@@H]1N, the LEL (rat [1]) is reported as 5 mg/kg/day, the LOAEL (rat [1]) is reported as > 150 mg/kg/day and the NEL (rat [1]) is reported as < 5 mg/kg/day. The NOAEL (rat [1]) was ≥ 150 mg/kg/day, the LEL (dog; [3]) was 3 mg/kg/day and the NEL (dog; [3]) was < 3 mg/kg/day. For the same compound, the LOAEL (dog; [4]) was > 30 mg/kg/day, the NOAEL (dog; [4]) was ≥ 30 mg/kg/day and the LEL (primate) was 40 mg/kg/day. The LOAEL (primate) was > 40 mg/kg/day, the NEL (primate) was 15 mg/kg/day and the NOAEL (primate) was ≥ 40 mg/kg/day. The LEL (rat [2]) was 5 mg/kg/day, the LOAEL (rat [2]) was > 5 mg/kg/day and the NEL (rat [2]) was < 5 mg/kg/day. The NOAEL (rat [2]) was ≥ 5 mg/kg/day.
